Data on 16 compounds can be found in publication PMC5061469 (International Journal for Parasitology: Drugs and Drug …, 2016).

SMILES strings stand for the structures. Where “and” joins values, the source holds several entries; their conditions need not be identical. Identical values can stand only once. Entries after “also recorded” stand apart in the source; their conditions may differ. Like-named read-outs stand apart in the source and are kept apart here. Bounds are passed on as bounds.

For series [1], the system named is Salmonella typhimurium TA1535/pSK1002. Description: Genotoxicity assay, SOS/umu test. In kind it is cell-based. As to conditions: for genotoxicity (SOS/umu test): with or without S9 fraction; for induction factor (IF): at non-cytotoxic concentrations with or without S9 fraction.
In series [2] the test system is multidrug resistant FCR-3 strain of P. falciparum. Description: In vitro antiplasmodial activity. In kind it is cell-based, Plasmodium falciparum.
In the next series the test system is β-hematin formation. Briefly: β-hematin inhibition assay. The class given is biochemical. The conditions noted are these: screened between 0.44 and 110 μM; for IC50: read-out: β-hematin inhibition activity IC50.
In series [3] the test system is multidrug resistant (C235) strain of P. falciparum. Briefly: In vitro antiplasmodial activity. The class given is cell-based, Plasmodium falciparum.
In series [4] the test system is chloroquine sensitive (D6) strain of P. falciparum. Description: In vitro antiplasmodial activity. The class given is cell-based, Plasmodium falciparum.
A short description of the next series: Cytotoxicity assay. The class given is cell-based, African Green Monkey. The conditions noted are these: African green monkey, VERO cells (kidney epithelial cells).
The next series relates to VERO cells. Briefly: Cytotoxicity assay. The class given is cell-based, African Green Monkey. The conditions noted are these: for SI (selectivity index): CC50 (cytotoxicity)/IC50 (FCR-3); for CC50: inhibition of 50% of VERO cells survival, 48 h, MTT.
For the next series, the target named is PM2 (plasmepsin II) (Plasmodium falciparum, UniProt P46925). Briefly: Plasmepsin assay. In kind it is biochemical, P. falciparum. As to conditions: tested at 5 μM.
PM2 (plasmepsin II), sequence (P46925 125-453): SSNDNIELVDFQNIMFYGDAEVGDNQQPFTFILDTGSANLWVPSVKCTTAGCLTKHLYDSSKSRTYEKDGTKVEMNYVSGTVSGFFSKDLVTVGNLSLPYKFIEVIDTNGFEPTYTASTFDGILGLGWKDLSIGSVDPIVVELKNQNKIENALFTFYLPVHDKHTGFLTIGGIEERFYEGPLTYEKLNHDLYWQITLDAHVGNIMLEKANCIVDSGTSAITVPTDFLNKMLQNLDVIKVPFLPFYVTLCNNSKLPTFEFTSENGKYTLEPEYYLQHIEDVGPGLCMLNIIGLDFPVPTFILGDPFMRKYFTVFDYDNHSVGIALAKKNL
A further series is described as follows: Heme binding studies. The conditions noted are these: 40% DMSO, 0.02 M HEPES, pH 7.4.
A further series has as its system P. berghei ANKA. Briefly: In vivo antimalarial activity, classical 4-day suppressive test. On the set-up: species or system Plasmodium berghei (Swiss male mice). As to conditions: oral 50 mg/kg/day x 4 days; for % Suppression of parasitemia: day 4.
For series [5], the system named is hemozoin formation pathway in D6 culture. Description: Target validation in P. falciparum, heme speciation assay. The class given is cell-based, Plasmodium falciparum. As to conditions: increasing concentrations of compound.
Setting [6] is: Plasmodium falciparum, FCR3, read-out: FCR-3 IC50, P. falciparum multidrug-resistant strain FCR-3.
Where [7] appears, read: Plasmodium falciparum, 72 h, read-out: Antimalarial activity IC50 C235, multidrug-resistant strain C235, 72 h.
[8] abbreviates: Plasmodium falciparum, D6, 72 h, read-out: Antimalarial activity IC50 D6, chloroquine sensitive strain D6, 72 h.
The mark [9] stands for this setting: read-out: FCR-3 IC50, P. falciparum multidrug-resistant strain FCR-3.
[10] abbreviates: read-out: Antimalarial activity IC50 D6, chloroquine sensitive strain D6, 72 h.

Broadly, the IC50 is the midpoint of a concentration-inhibition curve. In the case of `Fc1ccc(C2=CCNCC2)cc1` [AM01, 4-(4-fluorophenyl)-1,2,3,6-tetrahydropyridine], the “genotoxicity (SOS/umu test)” value in series [1] is “not considered genotoxic”. Moreover, the IC50 in series [2] (setting [6]) is 8.2 ± 2 µM.
As for `O=[N+]([O-])c1ccc(NC2CCNCC2)c(C(F)(F)F)c1` [AM02, 4-(4-nitro-2-trifluoromethylphenyl)aminopiperidine], the “genotoxicity (SOS/umu test)” value in series [1] is “not considered genotoxic”. Also, in series [2] (setting [6]), the IC50 came to 4.3 ± 0.9 µM.
In general, CC50 refers to the concentration that lowers cell viability or growth by half. Higher therefore signals better tolerance by the cells. As for `CCN(CC)CCCC(C)Nc1ccnc2cc(Cl)ccc12` (stereo not shown) [CQ, chloroquine, reference compound], the IC50 with β-hematin formation is 48.7 ± 2.7 µM; in series [3] (setting [7]), 0.048 ± 0.004 µM; in series [4] (setting [8]), 0.014 ± 0.001 µM; in series [2] (setting [6]), 0.13 µM. The compound also returned a CC50 at 48 h in “Cytotoxicity assay” greater than 50 µM.
Consider `O=[N+]([O-])c1ccc(N2CCN(CCC(O)c3csc4ccc(F)cc34)CC2)c(C(F)(F)F)c1` (stereo not shown) [Compound 14, 1-(5-fluorobenzo[b]thiophen-3-yl)-3-[4-(4-nitro-2-trifluoromethylphenyl)piperazin-1-yl] propan-1-ol], for which the IC50 in series [2] (setting [6]) was 1.32 ± 0.2 µM. This compound returned a CC50 at 48 h in the series “Cytotoxicity assay” greater than 200 µM. Besides, in the series on VERO cells, the “SI (selectivity index)” value is reported as greater than 150. Besides, the “inhibition of PM2 compared to the control” value against PM2 (plasmepsin II) was “no significant inhibition”.
Turning to `O=[N+]([O-])c1cc(C(F)(F)F)ccc1N1CCN(CCC(O)c2csc3ccc(F)cc23)CC1` (stereo not shown) [Compound 15, 1-(5-fluorobenzo[b]thiophen-3-yl)-3-[4-(2-nitro-4-trifluoromethylphenyl)piperazin-1-yl] propan-1-ol], the half-inhibitory concentration (IC50) in [2] (setting [6]) is 2.23 ± 0.2 µM. The half-maximal cytotoxic concentration (CC50) at 48 h in “Cytotoxicity assay” was greater than 150 µM. In addition, the “SI (selectivity index)” value with VERO cells is recorded as greater than 50.
As for `OC(CCN1CCN(c2ccc(C(F)(F)F)cc2)CC1)c1csc2ccc(F)cc12` (stereo not shown) [Compound 16, 1-(5-fluorobenzo[b]thiophen-3-yl)-3-(4-(4-trifluoromethylphenyl)piperazin-1-yl) propan-1-ol], the IC50 in [2] (setting [6]) amounted to 1.68 ± 0.6 µM. Besides, the CC50 at 48 h in the series “Cytotoxicity assay” was greater than 250 µM. Moreover, the “SI (selectivity index)” value in the series with VERO cells is listed as greater than 100. Besides, the “inhibition of PM2 compared to the control” value at PM2 (plasmepsin II) is reported as “no significant inhibition”.
For `O=[N+]([O-])c1ccc(N2CCCN(CCC(O)c3csc4ccc(F)cc34)CC2)c(C(F)(F)F)c1` (stereo not shown) [Compound 17, 1-(5-fluorobenzo[b]thiophen-3-yl)-3-[4-(4-nitro-2-trifluoromethylphenyl)-1,4-diazepan-1-yl]propan-1-ol], the values for the half-inhibitory concentration (IC50) in series [2] (setting [6]) and in series [2] (setting [9]) were less than 1 µM and 0.75 ± 0.02 µM, respectively. In “Cytotoxicity assay”, this compound showed a CC50 at 48 h of 13.3 µM. Further, the “SI (selectivity index)” value in the series with VERO cells is 18. Besides, the “inhibition of PM2 compared to the control” value against PM2 (plasmepsin II) was “no significant inhibition”.
As for `O=[N+]([O-])c1ccc(N2CCC(NCCC(O)c3csc4ccc(F)cc34)CC2)c(C(F)(F)F)c1` (stereo not shown) [Compound 18], the IC50 in series [2] (setting [9]) was 0.7 ± 0.1 µM. Also, the midpoint of cytotoxicity in the series with VERO cells, the CC50, lay at 6.3 µM. Also, the “inhibition of PM2 compared to the control” value against PM2 (plasmepsin II) is reported as “no significant inhibition”.
Turning to `OC(CCN1CC=C(c2ccc(F)cc2)CC1)c1ccc2ccccc2c1` (stereo not shown) [Compound 19, 3-[4-(4-fluorophenyl)-3,6-dihydropyridin-1(2H)-yl]-1-(naphthalen-2-yl)propan-1-ol], the IC50 in [2] (setting [6]) came to 14 ± 3.5 µM. The cytotoxic concentration (CC50) at 48 h in the series “Cytotoxicity assay” worked out at 24.6 µM. The “SI (selectivity index)” value in the series on VERO cells was found to be 1.75.
`OC(CCN1CC=C(c2ccc(F)cc2)CC1)c1ccc(C(F)(F)F)cc1` (stereo not shown) [Compound 20, 3-[4-(4-fluorophenyl)-3,6-dihydropyridin-1(2H)-y])-1-(4-(trifluoromethylphenyl)propan-1-ol]: the IC50 in [2] (setting [9]) is 5.6 ± 2.3 µM. Moreover, the CC50 in the series with VERO cells is greater than 350 µM.
In the case of `OC(CCN1CCN(c2ccc(C(F)(F)F)cc2)CC1)c1ccc(F)c2ccccc12` (stereo not shown) [Compound 21], in series [2] (setting [9]), the IC50 amounted to 0.93 ± 0.7 µM. Besides, in the series with VERO cells, the cytotoxic concentration (CC50) is greater than 100 µM.
Turning to `O=[N+]([O-])c1ccc(N2CCC(NCCC(O)c3ccc(F)c4ccccc34)CC2)c(C(F)(F)F)c1` (stereo not shown) [Compound 22, 1-(4-Fluoronaphthalen-1-yl)-3-((1-(4-nitro-2-(trifluoromethyl)phenyl)piperidin-4-yl)amino) propan-1-ol], in [1], the “induction factor (IF)” value was “lower than 2” and the “genotoxicity (SOS/umu test)” value is reported as “absence of genotoxicity; also recorded: not considered genotoxic”. Besides, in the series on β-hematin formation, the IC50 came to 80.7 ± 1.7 µM. Moreover, the IC50 in series [4] (setting [8]) was no more than 0.19 µM. Besides, the half-inhibitory concentration (IC50) in series [4] (setting [10]) was found to be 0.11 ± 0.01 µM. In addition, the “affinity for the μ-oxo dimer form of heme (binding curve)” value in “Heme binding studies” was “affinity resembling that of chloroquine”. In the series with P. berghei ANKA (P. berghei-infected mice), the “MSD (mean survival time)” value was greater than 35 days and the “cure / survival of treated mice” value is reported as “complete cure”. For the same compound, the “% Suppression of parasitemia” value in the series with P. berghei ANKA (P. berghei-infected mice, 50 mg/kg/day) is 98 ± 1% and 98%. Further, the “signs of toxicity in treated mice” value with P. berghei ANKA was “no signs of toxicity”. This compound gave a CC50 at 48 h in the series “Cytotoxicity assay” of 5.5 µM. Further, the “SI (selectivity index)” value in the series on VERO cells was 37. In addition, the “levels of free heme and hemozoin” value in series [5] is “remained constant”. Moreover, the “inhibition of PM2 compared to the control” value against PM2 (plasmepsin II) is given as “no significant inhibition”.
With `OC(CCN1CC=C(c2ccc(F)cc2)CC1)c1ccc(F)c2ccccc12` (stereo not shown) [Compound 23, 1-(4-Fluoronaphthalen-1-yl)-3-[4-(4-fluorophenyl)-3,6-dihydropyridin-1(2H)-yl] propan-1-ol], in series [1], the “induction factor (IF)” value is reported as “lower than 2”. Further, in series [1], the “genotoxicity (SOS/umu test)” value is reported as “absence of genotoxicity; also recorded: not considered genotoxic”. In addition, in the series on β-hematin formation, the “β-hematin inhibition activity IC50” value is recorded as “Not active”. In addition, the IC50 in [3] (setting [7]) is no more than 0.28 µM; in series [3] (read-out: Antimalarial activity IC50 C235, multidrug-resistant strain C235, 72 h), 0.28 ± 0.05 µM; in series [4] (setting [8]), no more than 0.19 µM; in [4] (setting [10]), 0.19 ± 0.04 µM. For the same compound, the “MSD (mean survival time)” value in the series on P. berghei ANKA (P. berghei-infected mice) amounted to 9 days. Further, the “% Suppression of parasitemia” value in the series with P. berghei ANKA (P. berghei-infected mice) came to 73 ± 16%. The compound further displayed a CC50 at 48 h in the series “Cytotoxicity assay” of 49.5 µM. The “SI (selectivity index)” value in the series on VERO cells came to 124. Also, the “inhibition of PM2 compared to the control” value against PM2 (plasmepsin II) was “no significant inhibition”.
Consider `O=[N+]([O-])c1ccc(N2CCN(CCC(O)c3ccc(F)cc3)CC2)c(C(F)(F)F)c1` (stereo not shown) [Compound 24, 1-(4-fluorophenyl)-3-[4-(4-nitro-2-trifluoromethylphenyl)piperazin-1-yl]propan-1-ol], for which, in series [1], the “induction factor (IF)” value is reported as “lower than 2” and the “genotoxicity (SOS/umu test)” value is reported as “absence of genotoxicity; also recorded: not considered genotoxic”. Further, in the series on P. berghei ANKA (P. berghei-infected mice), the “MSD (mean survival time)” value was 8 days and the “% Suppression of parasitemia” value came out at 17 ± 8%. The CC50 at 48 h in “Cytotoxicity assay” was 88 µM. Further, in the series with VERO cells, the “SI (selectivity index)” value turned out to be 244. The “inhibition of PM2 compared to the control” value against PM2 (plasmepsin II) is recorded as “no significant inhibition”.
In the case of `OC(CCN1CC=C(c2ccc(F)cc2)CC1)c1ccc(F)cc1` (stereo not shown) [Compound 26, 1-(4-fluorophenyl)-3-[4-(4-fluorophenyl)-3,6-dihydropyridin-1(2H)-yl]propan-1-ol], the IC50 is less than 1 µM in series [2] (setting [6]) and 0.66 ± 0.01 µM in series [2] (setting [9]). The 50% cytotoxic concentration (CC50) at 48 h in “Cytotoxicity assay” is greater than 100 µM. Further, the “SI (selectivity index)” value in the series on VERO cells is given as greater than 150.
Turning to `COc1cccc2c1C(=O)c1c(O)c3c(c(O)c1C2=O)C[C@@](O)(C(=O)CO)C[C@@H]3O[C@H]1C[C@H](N)[C@H](O)[C@H](C)O1` [Doxorubicin, reference compound], the CC50 at 48 h in the series “Cytotoxicity assay” was determined as 6.4 µM.
